According to ChEMBL document CHEMBL3396993, “Inhibition of monoamine oxidase by indole-5,6-dicarbonitrile derivatives” (Bioorg Med Chem Lett, 2015):

Experiments:
[1] = target: T1, Amine oxidase [flavin-containing] A (Homo sapiens, UniProt P21397);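 also: recombinant human enzyme, activity followed as kynuramine conversion to 4-hydroxyquinoline, detected by spectrofluorometry, inhibition measured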
T1 sequence (P21397 whole entry): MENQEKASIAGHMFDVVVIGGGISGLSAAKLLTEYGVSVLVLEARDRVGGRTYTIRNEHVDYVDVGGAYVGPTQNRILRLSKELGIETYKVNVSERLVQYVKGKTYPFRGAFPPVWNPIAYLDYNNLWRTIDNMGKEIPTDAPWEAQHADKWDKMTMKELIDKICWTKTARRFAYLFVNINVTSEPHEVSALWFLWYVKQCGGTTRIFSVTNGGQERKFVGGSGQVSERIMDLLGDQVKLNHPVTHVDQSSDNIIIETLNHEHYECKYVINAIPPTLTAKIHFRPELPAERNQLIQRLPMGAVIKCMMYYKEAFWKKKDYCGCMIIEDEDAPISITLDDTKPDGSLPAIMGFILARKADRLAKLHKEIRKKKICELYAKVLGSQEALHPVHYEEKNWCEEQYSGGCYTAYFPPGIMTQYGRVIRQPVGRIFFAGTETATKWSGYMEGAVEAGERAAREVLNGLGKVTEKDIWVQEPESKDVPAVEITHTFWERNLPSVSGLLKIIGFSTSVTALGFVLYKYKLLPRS

[2] = target: T2, Amine oxidase [flavin-containing] B (Homo sapiens, UniProt P27338);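 also: recombinant enzyme, kynuramine substrate converted to 4-hydroxyquinoline, product quantified by spectrofluorometry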
T2 sequence (P27338 whole entry): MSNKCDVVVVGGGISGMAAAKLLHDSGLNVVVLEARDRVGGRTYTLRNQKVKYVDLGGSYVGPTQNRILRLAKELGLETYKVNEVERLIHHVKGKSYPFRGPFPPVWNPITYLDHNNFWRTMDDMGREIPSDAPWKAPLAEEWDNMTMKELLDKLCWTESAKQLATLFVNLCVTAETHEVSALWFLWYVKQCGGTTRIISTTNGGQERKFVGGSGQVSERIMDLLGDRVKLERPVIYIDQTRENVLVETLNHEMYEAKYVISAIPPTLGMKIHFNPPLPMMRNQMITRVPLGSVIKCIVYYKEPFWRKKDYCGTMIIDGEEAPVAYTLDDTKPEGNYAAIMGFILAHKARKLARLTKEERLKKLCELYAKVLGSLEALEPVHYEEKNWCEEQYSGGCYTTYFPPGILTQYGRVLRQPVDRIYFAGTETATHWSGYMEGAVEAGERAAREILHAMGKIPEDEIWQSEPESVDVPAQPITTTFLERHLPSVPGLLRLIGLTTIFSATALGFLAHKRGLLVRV

[3] = target: T2, Amine oxidase [flavin-containing] B; assay: Inhibition of human recombinant MAO-B assessed as kynuramine substrate by Lineweaver-Burk plot analysis
[4] = target: T2, Amine oxidase [flavin-containing] B; assay: Reversible inhibition of human recombinant MAO-B using kynuramine substrate assessed as enzyme activity recovered at 4 times of IC50 concentration incubated for 15 mins and subsequently dialyzed for 24 hrs relative to control; set-up: scale not given: the % may be the effect or the level left; settings: 0.25 h
[5] = target: T1, Amine oxidase [flavin-containing] A; assay: Reversible inhibition of human recombinant MAO-A using kynuramine substrate assessed as enzyme activity recovered at 4 times of IC50 concentration incubated for 15 mins relative to control; set-up: scale not given: the % may be the effect or the level left; settings: 0.25 h
[6] = target: T1, Amine oxidase [flavin-containing] A; assay: Inhibition of human recombinant MAO-A assessed as kynuramine substrate by Lineweaver-Burk plot analysis
[7] = target: T1, Amine oxidase [flavin-containing] A; assay: Reversible inhibition of human recombinant MAO-A using kynuramine substrate assessed as enzyme activity recovered at 4 times of IC50 concentration incubated for 15 mins and subsequently dialyzed for 24 hrs relative to control; set-up: scale not given: the % may be the effect or the level left; settings: 0.25 h
[8] = target: T1, Amine oxidase [flavin-containing] A; assay: Reversible inhibition of human recombinant MAO-A using kynuramine substrate assessed as enzyme activity recovered at 4 times of IC50 concentration incubated for 15 mins and subsequently dialyzed for 24 hrs relative to control in presence of pargyline; set-up: scale not given: the % may be the effect or the level left; settings: 0.25 h
[9] = target: T2, Amine oxidase [flavin-containing] B; assay: Reversible inhibition of human recombinant MAO-B using kynuramine substrate assessed as enzyme activity recovered at 4 times of IC50 concentration incubated for 15 mins and subsequently dialyzed for 24 hrs relative to control in presence of (R)-deprenyl; set-up: scale not given: the % may be the effect or the level left; settings: 0.25 h
[10] = target: T2, Amine oxidase [flavin-containing] B; assay: Reversible inhibition of human recombinant MAO-B using kynuramine substrate assessed as enzyme activity recovered at 4 times of IC50 concentration incubated for 15 mins relative to control; set-up: scale not given: the % may be the effect or the level left; settings: 0.25 h

| IC50 [1] [nM] | IC50 [2] [nM] | SMILES | other results |
| --- | --- | --- | --- |
| 121 | 144 | N#Cc1cc2[nH]c(-c3ccccc3)c(Cl)c2cc1C#N | – |
| 2190 | 2860 | Cc1ccc(-c2c(Br)c3cc(C#N)c(C#N)cc3n2O)cc1 | – |
| > 100000 | > 100000 | COc1ccc(-c2c(Br)c3cc(C#N)c(C#N)cc3n2OC)cc1 | – |
| 726 | 1520 | COc1ccc(-c2c(Br)c3cc(C#N)c(C#N)cc3n2O)cc1 | – |
| 142 | > 100000 | Cn1c(-c2ccccc2)c(Cl)c2cc(C#N)c(C#N)cc21 | – |
| 3480 | 11900 | N#Cc1cc2c(Br)c(-c3ccccc3)n(O)c2cc1C#N | – |

The next lines start with the molecule.

| SMILES | IC50 [1] [nM] | IC50 [2] [nM] | other results |
| --- | --- | --- | --- |
| N#Cc1cc2[nH]c(-c3cccs3)c(Cl)c2cc1C#N | 118 | 1270 | – |
| COc1ccc(-c2[nH]c3cc(C#N)c(C#N)cc3c2Cl)cc1 | 4 | 20 | – |
| Cc1ccc(-c2c(Cl)c3cc(C#N)c(C#N)cc3n2C)cc1 | 19400 | > 100000 | – |
| Cc1ccc(-c2[nH]c3cc(C#N)c(C#N)cc3c2Cl)cc1 | 14 | 17 | Ki [3]: 16 nM; Activity [4]: 78%; Activity [5]: 43%; Ki [6]: 18 nM; Activity [7]: 77%; Activity [8]: 1.6%; Activity [9]: 3.1%; Activity [10]: 37% |
| Cn1c(-c2cccs2)c(Cl)c2cc(C#N)c(C#N)cc21 | 35 | > 100000 | – |
| N#Cc1ccc(OCc2ccc(Br)cc2)cc1C#N | 6.6 | – | – |
| COc1ccc(-c2c(Cl)c3cc(C#N)c(C#N)cc3n2C)cc1 | 129 | > 100000 | – |
| N#Cc1ccc(OC/C=C/c2ccccc2)cc1C#N | – | 642 | – |
